Results from ChEMBL document CHEMBL1127849, “Benzisoxazole- and benzisothiazole-3-carboxamides as potential atypical antipsychotic agents” (J Med Chem, 1994).
pIC50: −log10 of the molar value.

How the values were obtained:
[1] = molecular target: T1, Adrenergic receptor alpha-1 (Rattus norvegicus, UniProt P15823+P23944+P43140); experiment: Its affinity towards alpha-1 receptor using [3H]WB-4101 as radioligand in whole brain minus cerebellum; assay type: tissue-based
T1 sequence (P15823 whole entry): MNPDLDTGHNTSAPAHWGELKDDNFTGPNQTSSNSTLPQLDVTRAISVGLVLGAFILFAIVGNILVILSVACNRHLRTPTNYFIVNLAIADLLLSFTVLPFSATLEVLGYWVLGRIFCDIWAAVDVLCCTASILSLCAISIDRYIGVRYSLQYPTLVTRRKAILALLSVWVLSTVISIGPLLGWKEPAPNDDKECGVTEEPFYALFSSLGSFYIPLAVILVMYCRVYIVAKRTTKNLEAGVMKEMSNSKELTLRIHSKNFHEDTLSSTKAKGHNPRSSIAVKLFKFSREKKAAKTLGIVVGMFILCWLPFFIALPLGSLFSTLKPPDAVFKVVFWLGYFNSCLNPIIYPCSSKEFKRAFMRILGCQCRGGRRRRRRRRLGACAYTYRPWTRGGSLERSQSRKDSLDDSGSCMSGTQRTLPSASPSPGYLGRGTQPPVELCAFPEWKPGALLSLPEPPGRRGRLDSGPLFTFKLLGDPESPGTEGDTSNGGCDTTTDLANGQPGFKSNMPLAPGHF
T1 sequence (P23944 whole entry): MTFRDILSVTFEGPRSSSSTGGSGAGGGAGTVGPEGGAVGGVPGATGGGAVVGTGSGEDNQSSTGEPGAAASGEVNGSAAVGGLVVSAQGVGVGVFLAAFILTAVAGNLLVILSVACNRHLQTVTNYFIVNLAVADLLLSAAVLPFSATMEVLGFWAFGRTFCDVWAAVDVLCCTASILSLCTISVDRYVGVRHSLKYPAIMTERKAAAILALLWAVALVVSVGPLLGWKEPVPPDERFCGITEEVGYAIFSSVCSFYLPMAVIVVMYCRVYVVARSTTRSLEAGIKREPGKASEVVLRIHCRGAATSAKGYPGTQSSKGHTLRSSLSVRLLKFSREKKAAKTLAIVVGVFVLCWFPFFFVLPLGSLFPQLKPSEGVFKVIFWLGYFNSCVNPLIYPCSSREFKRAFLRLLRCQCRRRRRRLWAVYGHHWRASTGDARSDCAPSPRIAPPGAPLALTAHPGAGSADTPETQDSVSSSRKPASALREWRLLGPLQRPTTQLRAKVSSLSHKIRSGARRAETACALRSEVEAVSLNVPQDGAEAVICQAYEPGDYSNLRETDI
T1 sequence (P43140 whole entry): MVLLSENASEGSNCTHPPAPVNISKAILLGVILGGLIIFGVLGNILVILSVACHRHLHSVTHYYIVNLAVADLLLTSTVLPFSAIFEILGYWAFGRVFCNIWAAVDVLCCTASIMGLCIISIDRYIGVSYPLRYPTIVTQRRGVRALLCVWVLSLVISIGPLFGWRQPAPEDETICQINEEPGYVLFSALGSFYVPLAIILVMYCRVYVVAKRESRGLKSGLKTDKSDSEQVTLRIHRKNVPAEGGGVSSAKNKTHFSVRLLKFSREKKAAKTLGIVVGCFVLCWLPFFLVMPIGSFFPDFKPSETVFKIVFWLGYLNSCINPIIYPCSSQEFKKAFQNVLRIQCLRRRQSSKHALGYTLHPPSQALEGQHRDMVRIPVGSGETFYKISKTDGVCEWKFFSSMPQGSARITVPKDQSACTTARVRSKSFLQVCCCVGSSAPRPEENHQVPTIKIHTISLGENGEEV

[2] = system: Mus musculus; experiment: In vivo effective dose for inhibition of apomorphine-induced climbing in mice after intraperitoneal administration at a dose 20 mg/kg; assay type: functional; settings: ip
[3] = molecular target: 5-hydroxytryptamine receptor 2A (Rattus norvegicus, UniProt P14842); experiment: In vitro affinity towards 5-hydroxytryptamine 2A receptor using [3H]spiroperidol as radioligand in cortex
[4] = molecular target: T2, 5-hydroxytryptamine receptor 1A (Rattus norvegicus, UniProt P19327); experiment: In vitro affinity towards 5-hydroxytryptamine 1A receptor using [3H]8-OH-DPAT as radioligand in hippocampus; assay type: tissue-based
T2 sequence (P19327 whole entry): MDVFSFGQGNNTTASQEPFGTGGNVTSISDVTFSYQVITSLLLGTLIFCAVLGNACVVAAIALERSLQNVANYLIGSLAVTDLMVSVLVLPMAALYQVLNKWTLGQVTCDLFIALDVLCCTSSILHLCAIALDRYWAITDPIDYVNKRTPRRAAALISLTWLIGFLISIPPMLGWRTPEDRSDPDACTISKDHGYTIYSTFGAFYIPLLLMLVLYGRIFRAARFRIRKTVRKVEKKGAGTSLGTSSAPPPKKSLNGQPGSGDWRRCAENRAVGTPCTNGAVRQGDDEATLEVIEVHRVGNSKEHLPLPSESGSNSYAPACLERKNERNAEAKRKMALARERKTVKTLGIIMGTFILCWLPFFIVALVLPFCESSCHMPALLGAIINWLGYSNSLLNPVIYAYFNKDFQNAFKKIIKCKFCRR

[5] = system: Rattus norvegicus; experiment: Compound was evaluated in vivo for its antipsychotic activity for inhibition of apomorphine-induced stereotypy in rat; assay type: functional
[6] = system: Mus musculus; experiment: In vivo for its effective dose for inhibition of apomorphine-induced climbing in mice after intraperitoneal administration at a dose 20 mg/kg; assay type: functional; settings: ip
[7] = system: Rattus norvegicus; experiment: Compound was evaluated in vivo for its antipsychotic activity for inhibition of apomorphine-induced stereotypy in rat after intraperitoneal administration of a dose of 10 mg/kg; assay type: functional; settings: ip
[8] = system: Rattus norvegicus; experiment: Compound was evaluated in vivo for its antipsychotic activity for inhibition of apomorphine-induced stereotypy in rat after intraperitoneal administration of a dose of 40 mg/kg; assay type: functional; settings: ip
[9] = system: Rattus norvegicus; experiment: Compound was evaluated in vivo for its antipsychotic activity for inhibition of apomorphine-induced stereotypy in rat after intraperitoneal administration at a dose of 40 mg/kg; assay type: functional; settings: ip
[10] = system: Rattus norvegicus; experiment: Compound evaluated in vivo for its antipsychotic activity for inhibition of apomorphine-induced stereotypy in rat after intraperitoneal administration of a dose of 13 mg/kg; assay type: functional; settings: ip
[11] = system: Rattus norvegicus; experiment: Compound was evaluated in vivo for its antipsychotic activity for inhibition of apomorphine-induced stereotypy in rat after intraperitoneal administration of a dose of 40 mg/kg value represented as percent inhibition; assay type: functional; settings: ip
[12] = system: Rattus norvegicus; experiment: Compound was evaluated in vivo for its antipsychotic activity for inhibition of apomorphine-induced stereotypy in rat after intraperitoneal administration of a dose of 13 mg/kg; assay type: functional; settings: ip

Sequence of 5-hydroxytryptamine receptor 2A (P14842 whole entry): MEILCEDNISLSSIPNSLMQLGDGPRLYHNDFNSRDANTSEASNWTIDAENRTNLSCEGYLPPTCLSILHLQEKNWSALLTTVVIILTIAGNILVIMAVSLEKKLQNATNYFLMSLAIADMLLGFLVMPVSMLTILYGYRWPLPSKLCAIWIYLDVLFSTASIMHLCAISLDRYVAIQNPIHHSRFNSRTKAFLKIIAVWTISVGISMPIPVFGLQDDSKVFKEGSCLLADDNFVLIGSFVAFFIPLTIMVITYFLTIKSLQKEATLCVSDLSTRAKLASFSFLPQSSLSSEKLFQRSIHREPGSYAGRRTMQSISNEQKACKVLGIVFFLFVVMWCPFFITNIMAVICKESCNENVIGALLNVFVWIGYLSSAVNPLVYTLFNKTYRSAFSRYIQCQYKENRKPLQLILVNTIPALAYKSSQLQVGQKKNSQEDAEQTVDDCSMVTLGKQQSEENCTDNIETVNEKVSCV

| Compound | IC50 [1] | ED50 [2] | pIC50 [3] | pIC50 [4] | further results |
| --- | --- | --- | --- | --- | --- |
| O=C(NCCN1CCC(n2c(O)nc3ccccc32)CC1)c1nsc2ccccc12 | 39.8 nM | > 20 mg/kg | 6.19 |  |  |
| CC(C)N(CCCN1CCC(C(=O)c2ccc(F)cc2)CC1)C(=O)c1noc2ccccc12 | 124 nM | 20.2 mg/kg | 6.54 | 5.64 |  |
| O=C(NCCN1CCN(c2cccc(Cl)c2)CC1)c1nsc2ccccc12 | 81.5 nM | > 20 mg/kg | 6.14 | 7.29 |  |
| O=C(NCCN1CCC(C(=O)c2ccc(F)cc2)CC1)c1nsc2ccccc12 | 15.7 nM | 3.64 mg/kg | 7.77 | 6.04 | ED50 [5]: 25.7 mg/kg |
| O=C(NCCN1CCC(c2noc3cc(Cl)ccc23)CC1)c1nsc2ccccc12 | 239 nM | > 20 mg/kg | 6.67 | 5.46 |  |
| O=C(NCCCN1CCC(c2noc3cc(Cl)ccc23)CC1)c1nsc2ccccc12 | 93.8 nM | > 20 mg/kg | 6.94 | 5.43 |  |
| CN1CCN(CCNC(=O)c2nsc3ccccc23)CC1 | > 10000 nM | > 20 mg/kg | < 5.00 | < 5.00 |  |
| CN(CCCCN1CCN(c2nsc3ccccc23)CC1)C(=O)c1nsc2ccccc12 | 5.8 nM |  | 7.89 | 7.73 | ED50 [5]: 39.2 mg/kg; ED50 [6]: 2.49 mg/kg |
| CN(CCCCN1CCN(c2csc3cc(F)ccc23)CC1)C(=O)c1nsc2ccccc12 | 6.3 nM |  | 6.63 | 6.44 | ED50 [5]: 33 mg/kg |
| Cc1nc2n(c(=O)c1CCN1CCC(c3noc4cc(F)ccc34)CC1)CCCC2 [RISPERIDONE] |  | 0.062 mg/kg |  |  | ED50 [5]: 3.2 mg/kg |
| O=C(NCCN1CCN(Cc2ccccc2)CC1)c1nsc2ccccc12 | 2570 nM | > 20 mg/kg |  | 5.73 |  |
| CN(CCCCN1CCC(c2noc3cc(F)ccc23)CC1)C(=O)c1nsc2ccccc12 | 174 nM |  | 7.89 | 6.80 | inhibition in vivo at 10 mg/kg [7]: 67% |
| COc1ccccc1N1CCN(CCCNC(=O)c2nsc3ccccc23)CC1 | 18.3 nM | 13 mg/kg | 5.51 | 7.07 | inhibition in vivo at 40 mg/kg [8]: 17% |
| CN(CCCCN1CCC(C(=O)c2ccc(F)cc2)CC1)C(=O)c1nsc2ccccc12 | 3.2 nM | 8.2 mg/kg | 7.52 | 6.47 | inhibition in vivo at 40 mg/kg [8]: 60% |
| CN1CCN(C2=Nc3cc(Cl)ccc3Nc3ccccc32)CC1 [CLOZAPINE] |  |  |  |  | inhibition in vivo at 40 mg/kg [8]: 33% |
| CC(C)N(CCN1CCC(c2noc3cc(F)ccc23)CC1)C(=O)c1noc2ccccc12 | 5.5 nM | 1.3 mg/kg | 7.53 |  |  |

| Compound | IC50 [1] | ED50 [2] | pIC50 [3] | pIC50 [4] | further results |
| --- | --- | --- | --- | --- | --- |
| COc1ccccc1N1CCN(CCCN(C)C(=O)c2nsc3ccccc23)CC1 | 10.7 nM | > 20 mg/kg | 5.78 | 6.83 |  |
| CN(CCCCN1CCN(c2csc3cc(F)ccc23)CC1)C(=O)c1noc2ccccc12 | 3.2 nM |  | 6.73 | 6.89 | ED50 [5]: 52 mg/kg |
| O=C(NCCCCN1CCN(c2nsc3ccccc23)CC1)c1nsc2ccccc12 | 5 nM |  | 6.70 | 7.74 | inhibition in vivo at 40 mg/kg [9]: 17% |
| COc1ccccc1N1CCN(CCNC(=O)c2noc3ccccc23)CC1 | 2.1 nM | > 20 mg/kg | 6.41 | 7.68 |  |
| CN(CCN1CCC(c2noc3cc(F)ccc23)CC1)C(=O)c1nsc2ccccc12 | 9.4 nM | 1.7 mg/kg | 7.48 | 6.09 | inhibition in vivo at 13 mg/kg [10]: 50% |
| O=C(NCCN1CCN(c2nsc3ccccc23)CC1)c1nsc2ccccc12 | 19 nM | > 20 mg/kg | 6.32 | 7.01 |  |
| COc1ccccc1N1CCN(CCCCNC(=O)c2nsc3ccccc23)CC1 | 6.4 nM | 7.24 mg/kg | 6.14 | 8.64 | inhibition in vivo at 40 mg/kg [11]: 83% |
| CN(CCN1CCC(c2noc3cc(F)ccc23)CC1)C(=O)c1noc2ccccc12 | 104 nM | 1.3 mg/kg | 7.75 | 6.36 | inhibition in vivo at 13 mg/kg [12]: 33% |
| CN(CCCN1CCC(C(=O)c2ccc(F)cc2)CC1)C(=O)c1noc2ccccc12 | 43 nM | > 20 mg/kg | 6.91 | 5.18 |  |
| CN(CCN1CCC(C(=O)c2ccc(F)cc2)CC1)C(=O)c1noc2ccccc12 | 108.2 nM | 13.4 mg/kg | 7.57 | 5.75 |  |
| COc1ccccc1N1CCN(CCNC(=O)c2nsc3ccccc23)CC1 | 4.1 nM |  | 6.26 | 8.41 | ED50 [5]: 51.8 mg/kg |
| O=C(NCCN1CCN(c2csc3cc(F)ccc23)CC1)c1noc2ccccc12 | > 10000 nM |  | 6.51 | 5.98 | inhibition in vivo at 40 mg/kg [8]: 17% |
| CN(CCN1CCC(C(=O)c2ccc(F)cc2)CC1)C(=O)c1nsc2ccccc12 | 75.3 nM | 8 mg/kg | 7.29 | 5.60 |  |
| COc1ccccc1N1CCN(CCCCN(C)C(=O)c2nsc3ccccc23)CC1 | 3.3 nM | 9.61 mg/kg |  | 8.40 | inhibition in vivo at 40 mg/kg [8]: 100% |
| CN(CCCN1CCC(C(=O)c2ccc(F)cc2)CC1)C(=O)c1nsc2ccccc12 | 6.11 nM | 7.7 mg/kg | 7.17 | 5.33 |  |
